Data: patent US20090227683A1, “Compositions for Providing an Analgesic Effect to the Skin” (priority 2008, published 2009)

Tests used:
[1] = system: Albino male CD-1 mice (neurogenic inflammation induced by Resiniferatoxin); experiment: Resiniferatoxin neurogenic inflammation model in the mouse ear (ear edema); assay type: in vivo; details: for inhibition of the neurogenic inflammatory response to resiniferatoxin, in words: summary of Tables 2 to 4
From the text: Neurosensory inflammation, also referred to as neurogenic inflammation, is a type of inflammation triggered by sensory nerve activation in skin. Certain natural substances that act on vanilloid receptors cause sensory nerves (C-fibers) to release inflammatory neuropeptides. In mouse skin, an edema response occurs rapidly upon application of a vanilloid receptor activator, such as capsaicin or resiniferatoxin (RTX).
Albino male CD-1 mice, 7-9 weeks old, were used. […] A 20-μL volume of Resiniferatoxin (0.05%) prepared in acetone was applied to the left ears (7 mice per treatment group). The right ear was not treated. Test agents were prepared in a 70% ethanol/30% propylene glycol vehicle and applied to the left ear (20 μL) immediately after resiniferatoxin challenge. The percent inhibition was calculated by comparing treatments to resiniferatoxin alone. Anti-neurogenic inflammation effects of compounds are evident as an inhibition of the increase in ear weight.

[2] = system: Albino male CD-1 mice (scratching induced by Compound 48/80); experiment: Scratching against Compound 48/80 in mice; assay type: in vivo; details: for effect on Compound 48/80 scratching, in words: text summary of Tables 1 and 8
Protocol: (§1) Albino male CD-1 mice, 7-9 weeks old, were used. Testing was based on known methods (See Liebel et al., Arch Dermatol Res. 298:191-199, 2006.) Test agents were prepared at concentrations noted in Table 1 in 100% ethanol and 50 μL was applied topically to the shaved dorsal skin 30 minutes prior to induction of scratching (8 mice per treatment group). Compound 48/80 (50 μg/50 μL: w/v) was then injected inter-dermal to the dorsal area and scratches were then counted for 30 minutes.
as §1, with “prepared” for “prepared at concentrations noted in Table 1”, “uL” for “μL”, “ug/50 uL” for “μg/50 μL:”

[3] = Table 2, topical dose 0.5 % w/v in 70% ethanol/30% propylene glycol, 20 μL to ear immediately after resiniferatoxin
[4] = Table 8, topical dose 1 % w/v in 100% ethanol, 50 uL, 30 minutes prior to Compound 48/80

SMILES: [Ca+2].[Cl-].[Cl-] [Calcium Chloride, reference compound]
- % Inhibition of the Ear Edema ([1]; Table 3, topical dose 1 % w/v): −3.24%

SMILES: CCN(CC)CC(=O)Nc1c(C)cccc1C [Lidocaine, reference compound]
- % Inhibition of the Ear Edema [1, 3]: 28.7%

SMILES: Nc1cc(N2CCCCC2)nc(N)[n+]1[O-] [Minoxidil, reference compound]
- % Inhibition of Scratching [2, 4]: 8.42%

SMILES: CC(N/C(=N\C#N)Nc1ccncc1)C(C)(C)C (stereo not drawn) [Pinacidil, reference compound]
- % Inhibition of Scratching [2, 4]: 17.03%

SMILES: CC(=O)[O-].[K+] [Potassium Acetate]
- % Inhibition of the Ear Edema ([1]; Table 4, topical dose 0.398 % w/v): −2.89%

SMILES: O=C([O-])[O-].[K+].[K+] [Potassium Carbonate]
- % Inhibition of the Ear Edema ([1]; Table 4, topical dose 0.283 % w/v): 4.52%

SMILES: [Cl-].[K+] [Potassium Chloride]
- % Inhibition of the Ear Edema ([1]; Table 3, topical dose 0.524 % w/v): 9.98%
- % Inhibition of the Ear Edema ([1]; Table 4, topical dose 0.524 % w/v): 9.98%

SMILES: CC(O)C(=O)[O-].[K+] (stereo not drawn) [Potassium Lactate]
- % Inhibition of Scratching ([2]; Table 1, topical dose 0.206 % w/v in 100% ethanol, 50 μL, 30 minutes prior to Compound 48/80): −8.84%
- effect on Compound 48/80 scratching, in words [2]: very weak to no inhibition
- % Inhibition of the Ear Edema ([1]; Table 2, topical dose 0.206 % w/v, 20 μL to ear immediately after resiniferatoxin): 13.52%
- % Inhibition of the Ear Edema ([1]; Table 4, topical dose 0.206 % w/v): 13.52%
- inhibition of the neurogenic inflammatory response to resiniferatoxin, in words [1]: failed to significantly inhibit

SMILES: [Cl-].[Na+] [Sodium Chloride, reference compound]
- % Inhibition of the Ear Edema ([1]; Table 3, topical dose 1 % w/v): 7.06%

SMILES: CC(O)CN(CCN(CC(C)O)CC(C)O)CC(C)O (stereo not drawn) [Tetrahydroxypropyl ethylenediamine, N,N,N′,N′-Tetrakis(2-hydroxypropyl)ethylenediamine]
- % Inhibition of Scratching ([2]; Table 1, topical dose 1 % w/v in 100% ethanol, 50 μL on shaved dorsal skin 30 minutes prior to Compound 48/80, scratches counted for 30 minutes): 9.39%
- % Inhibition of Scratching [2, 4]: 9.39%
- effect on Compound 48/80 scratching, in words [2]: very weak to no inhibition
- % Inhibition of the Ear Edema ([1]; Table 2, topical dose 1 % w/v, 20 μL to ear immediately after resiniferatoxin): 4.04%
- inhibition of the neurogenic inflammatory response to resiniferatoxin, in words [1]: failed to significantly inhibit

SMILES: CC(C)NCCN(CCNC(C)C)CCNC(C)C [Tris[2-(isopropylamino)ethylamine]
- % Inhibition of the Ear Edema [1, 3]: 13.62%
- inhibition of the neurogenic inflammatory response to resiniferatoxin, in words [1]: failed to significantly inhibit
